Test results reported in ChEMBL document CHEMBL1671716, “Antimicrobial susceptibility patterns for recent clinical isolates of anaerobic bacteria in South Korea” (2010).
In brackets after ≈: the same amount, converted by molar mass.

Experiments:
[1] = tested on: Clostridium perfringens; assay: Antimicrobial activity against Clostridium perfringens after 48 hrs by agar dilution method; assay type: functional
[2] = tested on: Clostridioides difficile; assay: Antimicrobial activity against Clostridium difficile after 48 hrs by agar dilution method; assay type: functional

CN[C@H](CC(C)C)C(=O)N[C@H]1C(=O)N[C@@H](CC(N)=O)C(=O)N[C@H]2C(=O)N[C@H]3C(=O)N[C@H](C(=O)N[C@H](C(=O)O)c4cc(O)cc(O)c4-c4cc3ccc4O)[C@H](O)c3ccc(c(Cl)c3)Oc3cc2cc(c3O[C@@H]2O[C@H](CO)[C@@H](O)[C@H](O)[C@H]2O[C@H]2C[C@](C)(N)[C@H](O)[C@H](C)O2)Oc2ccc(cc2Cl)[C@H]1O [VANCOMYCIN]
MIC50 [1]: 0.5 µg/mL (≈ 0.345 µM) | MIC90 [1]: 0.5 µg/mL (≈ 0.345 µM) | MIC50 [2]: 0.5 µg/mL (≈ 0.345 µM) | MIC90 [2]: 2 µg/mL (≈ 1.38 µM)
